Results as given in patent publication US20080318792A1, “Extension of pollination period” (priority 2007, published 2008).

Key:
Format in all cases: in vivo
[1] = system: commercial inbred sorghum lines; experiment: Soil emergence of sorghum inbreds after ABA seed treatment; conditions: for Emergence / Median time to emergence / Quartile range: soil 20/30° C.
Experimental: Seed of four commercial inbred sorghum lines were obtained from a genetics supplier. These inbreds are representative of many male parents used in hybrid sorghum seed production. ABA in the form of the free acid was applied at rates of 0, 10, 25, 50 and 100 g/cwt. Application was performed as described under Example 2 above, except the Maxim XL (Syngenta) was applied at 0.334 oz/cwt, Allegiance FL (Bayer), was applied at 0.75 oz/cwt, and Thiram 42-S (Bayer) was applied at 3.5 oz/cwt, using a slurry rate of 25 oz/cwt. The seed was planted in soil in plastic boxes as described under Example 2, except at a depth of 2 cm., and incubated at 20/30° C. (AOSA Rules for Testing Seeds, 2005). Emergence was counted every 1-3 days and the data reduced as described under Example 2.

[2] = system: sweet corn seed (cv. Silver Queen); experiment: Germination of sweet corn seed on moist blotters at 15° C. after seed treatment; conditions: blotters 15° C.; for Coleoptile protrusion CGERM / Radicle protrusion RGERM: maximum by day 27
Experimental: ABA acid and three analogs were dissolved in ethanol to produce the desired doses. […] Aliquotes (250 μl) of ethanol solutions of the agents were added to 10 g samples of the seed and the seeds were agitated and dried overnight. Germination tests were conducted on moist blotters at 15° C. in petri dishes. Four replications of 10 seeds each were performed.
Radicle and coleoptile protrusion were counted approximately daily for 27 days. The maximum radical protrusion (RGERM) and maximum coleoptile protrusion (CGERM) were expressed as percentages from each dish. The daily counts were expressed as proportions of the protrusion maxima from each dish, and Gompertz curves were fitted to the protrusion data using SAS Proc NLIN. From the parameters of the models, median time to radicle protrusion (RT50), and median-time-to-coleoptile protrusion (CT50) were estimated for each dish. Analysis of variance was performed and means calculated for each of the four responses (RGERM, CGERM, RT50 and CT50).

[3] = system: corn seed lot "Hughes High" (commercial hybrid); experiment: Dose-response of corn soil emergence to ABA seed treatment in calendar and thermal time
Text: Because corn germination and phenology is driven by heat, the corn seed industry uses thermal time (Growing-Degree-Days, or GDD) rather than calendar time to measure and predict flowering. The standard formula for calculating the GDD contribution from one calendar day for corn is: where “Max temp” is either the high temperature for the day or 86, whichever is lower, and “Min temp” is either the low temperature for the day in F or 50, whichever is higher. In growth chambers at constant temperature the calculation is trivial. For example, in our nominally 25° C. chamber, the soil temperature is actually about 26.1° C. (79 F) due to the heat contribution of the light. This time corresponds to 29 GDD. […] The purpose of this experiment was to evaluate the dose response of corn seed emergence after seed treatment with ABA in terms of thermal time. ABA was applied at 0, 1, 2, 3, 4, 5, 10, 15, 20 and 25 g/cwt as the free acid in experimental seed treatment slurries as described under Example 1. The seed lot was designated as “Hughes High” and was a commercial hybrid. The seed was planted in soil in plastic boxes as described under Example 2, and incubated at 25° C. and 18° C. as described under Example 2. Emergence was counted every 1-2 days and the data reduced as described under Example 2. The daily heat unit contribution was calculated for the two chambers, and the responses examined in cumulative thermal time as well as calendar time.

[4] = sorghum inbred 43, ABA 10 g/cwt
[5] = sorghum inbred 43, ABA 25 g/cwt
[6] = sorghum inbred 43, ABA 50 g/cwt
[7] = sorghum inbred 43, ABA 100 g/cwt
[8] = sorghum inbred 44, ABA 10 g/cwt
[9] = sorghum inbred 44, ABA 25 g/cwt
[10] = sorghum inbred 44, ABA 50 g/cwt
[11] = sorghum inbred 44, ABA 100 g/cwt
[12] = sorghum inbred 45, ABA 10 g/cwt
[13] = sorghum inbred 45, ABA 25 g/cwt
[14] = sorghum inbred 45, ABA 50 g/cwt
[15] = sorghum inbred 45, ABA 100 g/cwt
[16] = sorghum inbred 46, ABA 10 g/cwt
[17] = sorghum inbred 46, ABA 25 g/cwt
[18] = sorghum inbred 46, ABA 50 g/cwt
[19] = sorghum inbred 46, ABA 100 g/cwt
[20] = ABA free acid 20 g/cwt, 25° C. soil test

For `CC1=CC(=O)CC(C)(C)[C@@]1(O)/C=C/C(C)=C\C(=O)O` [ABA, S-(+)-abscisic acid], the “effect on emergence of sorghum inbreds” value ([1]; ABA 10-100 g/cwt) was “progressively and significantly delayed emergence”, the Emergence [1, 4] was 94.0% and the “Median time to emergence” value [1, 4] was 5.1 days. The Quartile range [1, 4] was 1.5 days, the Emergence [1, 5] was 94.2% and the “Median time to emergence” value [1, 5] was 6.3 days. The Quartile range [1, 5] was 2.2 days, the Emergence [1, 6] was 87.2% and the “Median time to emergence” value [1, 6] was 8.6 days. For the same compound, the Quartile range [1, 6] was 3.7 days, the Emergence [1, 7] was 87.9% and the “Median time to emergence” value [1, 7] was 11.3 days. The Quartile range [1, 7] was 4.8 days, the Emergence [1, 8] was 79.0% and the “Median time to emergence” value [1, 8] was 5.7 days. For the same compound, the Quartile range [1, 8] was 2.6 days, the Emergence [1, 9] was 73.2% and the “Median time to emergence” value [1, 9] was 8.4 days. The Quartile range [1, 9] was 3.2 days, the Emergence [1, 10] was 71.3% and the “Median time to emergence” value [1, 10] was 10.7 days. The Quartile range [1, 10] was 4.6 days, the Emergence [1, 11] was 49.0% and the “Median time to emergence” value [1, 11] was 14.4 days. For the same compound, the Quartile range [1, 11] was 4.7 days, the Emergence [1, 12] was 81.3% and the “Median time to emergence” value [1, 12] was 5.4 days. For the same compound, the Quartile range [1, 12] was 1.5 days, the Emergence [1, 13] was 77.1% and the “Median time to emergence” value [1, 13] was 7.3 days. For the same compound, the Quartile range [1, 13] was 3.1 days, the Emergence [1, 14] was 54.1% and the “Median time to emergence” value [1, 14] was 10.6 days. For the same compound, the Quartile range [1, 14] was 3.5 days, the Emergence [1, 15] was 25.0% and the “Median time to emergence” value [1, 15] was 14.9 days. The Quartile range [1, 15] was 6.7 days, the Emergence [1, 16] was 89.2% and the “Median time to emergence” value [1, 16] was 5.7 days. For the same compound, the Quartile range [1, 16] was 2.6 days, the Emergence [1, 17] was 86.1% and the “Median time to emergence” value [1, 17] was 7.0 days. For the same compound, the Quartile range [1, 17] was 3.0 days, the Emergence [1, 18] was 86.2% and the “Median time to emergence” value [1, 18] was 8.8 days. The Quartile range [1, 18] was 3.9 days, the Emergence [1, 19] was 75.1% and the “Median time to emergence” value [1, 19] was 11.4 days. The Quartile range [1, 19] was 5.0 days, the “Coleoptile protrusion CT50” value ([2]; dose 10 ppm) was 9.70 days and the “Radicle protrusion RT50” value ([2]; dose 10 ppm) was 5.99 days. For the same compound, the “Coleoptile protrusion CGERM” value ([2]; dose 10 ppm) was 80.0%, the “Radicle protrusion RGERM” value ([2]; dose 10 ppm) was 87.5% and the “Coleoptile protrusion CT50” value ([2]; dose 100 ppm) was 12.80 days. For the same compound, the “Radicle protrusion RT50” value ([2]; dose 100 ppm) was 7.28 days, the “Coleoptile protrusion CGERM” value ([2]; dose 100 ppm) was 65.0% and the “Radicle protrusion RGERM” value ([2]; dose 100 ppm) was 77.5%. The “Coleoptile protrusion CT50” value ([2]; dose 1000 ppm) was 18.44 days, the “Radicle protrusion RT50” value ([2]; dose 1000 ppm) was 8.58 days and the “Coleoptile protrusion CGERM” value ([2]; dose 1000 ppm) was 22.5%. The “Radicle protrusion RGERM” value ([2]; dose 1000 ppm) was 85.0%, the “effect on emergence of corn seedlings” value ([3]; ABA free acid 1-25 g/cwt, 18 and 25° C.) was “delayed emergence progressively as the dose was increased” and the Emergence ([3]; ABA free acid 1 g/cwt, 18° C. soil test) was 94.2%. The Emergence ([3]; ABA free acid 1 g/cwt, 25° C. soil test) was 97.1%, the Emergence ([3]; ABA free acid 2 g/cwt, 18° C. soil test) was 91.2% and the Emergence ([3]; ABA free acid 2 g/cwt, 25° C. soil test) was 95.5%. For the same compound, the Emergence ([3]; ABA free acid 3 g/cwt, 18° C. soil test) was 94.0%, the Emergence ([3]; ABA free acid 3 g/cwt, 25° C. soil test) was 92.1% and the Emergence ([3]; ABA free acid 4 g/cwt, 18° C. soil test) was 89.2%. It also gave an Emergence ([3]; ABA free acid 4 g/cwt, 25° C. soil test) of 96.3%, an Emergence ([3]; ABA free acid 5 g/cwt, 18° C. soil test) of 92.0% and an Emergence ([3]; ABA free acid 5 g/cwt, 25° C. soil test) of 95.0%. It also gave an Emergence ([3]; ABA free acid 10 g/cwt, 18° C. soil test) of 94.0%, an Emergence ([3]; ABA free acid 10 g/cwt, 25° C. soil test) of 89.0% and an Emergence ([3]; ABA free acid 15 g/cwt, 18° C. soil test) of 92.1%. For the same compound, the Emergence ([3]; ABA free acid 15 g/cwt, 25° C. soil test) was 96.3%, the Emergence ([3]; ABA free acid 20 g/cwt, 18° C. soil test) was 90.1% and the Emergence [3, 20] was 95.0%. For the same compound, the delay [3, 20] was 3.4 days, the Emergence ([3]; ABA free acid 25 g/cwt, 18° C. soil test) was 88.1% and the Emergence ([3]; ABA free acid 25 g/cwt, 25° C. soil test) was 97.1%.
